In ChEMBL document CHEMBL3875184, “Biosynthetic approaches to creating bioactive fungal metabolites: Pathway engineering and activation of secondary metabolism” (Bioorg Med Chem Lett, 2016):

Tests used:
[1] = target: T1, Kinesin-like protein KIF11 (Homo sapiens, UniProt P52732); experiment: Inhibition of wild type eXact-tagged human Eg5 motor domain (1 to 368 residues) expressed in Escherichia coli BL21(DE3) assessed as reduction in microtubule-stimulated ATPase activity preincubated for 15 mins followed by microtubule addition in the presence of ATP after 6 mins by malachite green method
T1 sequence (P52732 whole entry): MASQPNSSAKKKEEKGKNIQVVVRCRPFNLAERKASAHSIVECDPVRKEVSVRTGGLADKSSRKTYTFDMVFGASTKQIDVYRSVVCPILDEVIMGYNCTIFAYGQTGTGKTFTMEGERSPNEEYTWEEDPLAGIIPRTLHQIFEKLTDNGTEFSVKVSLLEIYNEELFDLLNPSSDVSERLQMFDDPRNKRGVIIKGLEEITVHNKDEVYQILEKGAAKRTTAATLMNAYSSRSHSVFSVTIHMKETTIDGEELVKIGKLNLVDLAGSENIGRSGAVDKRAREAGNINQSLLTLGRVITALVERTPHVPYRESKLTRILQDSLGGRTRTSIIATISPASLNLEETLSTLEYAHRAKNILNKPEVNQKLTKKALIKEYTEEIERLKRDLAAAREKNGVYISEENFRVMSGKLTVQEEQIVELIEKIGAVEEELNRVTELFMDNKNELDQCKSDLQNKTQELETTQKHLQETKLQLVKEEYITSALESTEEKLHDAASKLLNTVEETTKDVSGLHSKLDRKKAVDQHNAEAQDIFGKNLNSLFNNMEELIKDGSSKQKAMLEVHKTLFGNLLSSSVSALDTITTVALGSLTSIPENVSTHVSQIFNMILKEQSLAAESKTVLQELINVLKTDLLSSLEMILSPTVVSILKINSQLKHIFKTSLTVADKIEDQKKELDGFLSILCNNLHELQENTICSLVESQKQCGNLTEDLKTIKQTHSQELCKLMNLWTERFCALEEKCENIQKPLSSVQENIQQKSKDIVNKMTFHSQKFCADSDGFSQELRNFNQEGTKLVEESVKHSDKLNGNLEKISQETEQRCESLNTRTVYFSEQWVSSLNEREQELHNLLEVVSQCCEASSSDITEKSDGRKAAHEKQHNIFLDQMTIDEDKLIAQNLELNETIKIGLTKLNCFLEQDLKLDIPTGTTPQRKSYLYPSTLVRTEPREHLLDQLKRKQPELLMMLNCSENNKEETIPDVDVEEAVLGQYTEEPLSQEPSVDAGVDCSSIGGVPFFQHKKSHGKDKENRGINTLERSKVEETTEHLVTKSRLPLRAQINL

[2] = Cytotoxicity against human HeLa cells assessed as reduction in cell viability after 48 hrs by SF-based cell counting method; assay type: functional
[3] = Inhibition of Drosophila Kinesin-1 assessed as reduction in microtubule-stimulated ATPase activity preincubated for 15 mins followed by microtubule addition in the presence of ATP after 6 mins by malachite green method
[4] = target: T2, Broad substrate specificity ATP-binding cassette transporter ABCG2 (Homo sapiens, UniProt Q9UNQ0); experiment: Inhibition of BCRP (unknown origin)-dependent ATPase activity at 50 uM after 30 mins by malachite green method; conditions: 0.5 h
T2 sequence (Q9UNQ0 whole entry): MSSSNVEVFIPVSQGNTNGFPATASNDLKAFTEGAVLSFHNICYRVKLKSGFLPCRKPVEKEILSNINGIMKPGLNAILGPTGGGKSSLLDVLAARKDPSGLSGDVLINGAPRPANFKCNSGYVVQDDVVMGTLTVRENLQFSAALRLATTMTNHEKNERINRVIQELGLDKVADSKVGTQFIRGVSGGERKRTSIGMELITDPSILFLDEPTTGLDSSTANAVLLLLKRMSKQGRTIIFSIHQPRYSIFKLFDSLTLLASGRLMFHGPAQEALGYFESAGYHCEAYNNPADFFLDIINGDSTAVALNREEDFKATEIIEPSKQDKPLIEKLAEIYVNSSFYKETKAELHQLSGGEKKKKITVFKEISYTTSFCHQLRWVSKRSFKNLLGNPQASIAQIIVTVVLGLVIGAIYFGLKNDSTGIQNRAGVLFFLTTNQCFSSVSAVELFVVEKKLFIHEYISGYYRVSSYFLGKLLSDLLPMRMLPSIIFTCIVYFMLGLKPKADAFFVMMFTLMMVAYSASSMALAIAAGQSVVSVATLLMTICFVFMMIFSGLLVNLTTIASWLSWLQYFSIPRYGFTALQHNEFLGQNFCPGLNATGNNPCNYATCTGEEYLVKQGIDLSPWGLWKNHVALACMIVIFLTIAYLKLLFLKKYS

[5] = target: T2, Broad substrate specificity ATP-binding cassette transporter ABCG2; experiment: Inhibition of BCRP in human K562 cells assessed as potentiation of SN38-mediated growth inhibition at 3 uM after 4 days by coulter counter method; assay type: cell-based; conditions: k562, 96 h
[6] = Cytotoxicity against human HT-29 cells; assay type: functional, cell-based
[7] = Cytotoxicity against human MCF7 cells; assay type: functional, cell-based
[8] = Cytotoxicity against human HeLa cells; assay type: functional, cell-based
[9] = Cytotoxicity against human Jurkat cells; assay type: functional, cell-based

SMILES	IC50 [1]	IC50 [2]	IC50 [3]	inhibition (INH) [4]	inhibition (INH) [5]	IC50 [6]	IC50 [7]	IC50 [8]	IC50 [9]
CC(C)(O)[C@@H]1CC(=O)[C@]2(C)[C@H](CC[C@@]3(C)[C@H]2CC[C@H]2Cc4c([nH]c5ccccc45)[C@@]23C)O1	16.5 µM	2.9 µM	> 100 µM	–	–	–	–	–	–
COc1ccc2c3c([nH]c2c1)[C@H](C=C(C)C)N1C(=O)[C@@H]2CCCN2C(=O)[C@]1(O)[C@H]3O	–	–	–	Active	Active	–	–	–	–
COc1ccc2c3c(n(CC=C(C)C)c2c1)[C@H](C=C(C)C)N1C(=O)[C@@H]2CCCN2C(=O)[C@]1(O)[C@H]3O	–	–	–	Active	Active	5 to 15 µM	5 to 15 µM	5 to 15 µM	5 to 15 µM
COc1ccc2c3c4n(c2c1)[C@@H](C=C(C)C)OOC(C)(C)C[C@@H]4N1C(=O)[C@@H]2CCCN2C(=O)[C@]1(O)[C@H]3O	–	–	–	Active	Active	20 to 30 µM	20 to 30 µM	20 to 30 µM	20 to 30 µM
CC(C)=C[C@H]1c2[nH]c3ccccc3c2C[C@H]2C(=O)N3CCC[C@H]3C(=O)N21 [DEMETHOXYFUMITREMORGIN C]	–	–	–	Active	Active	–	–	–	–
COc1ccc2c3c([nH]c2c1)[C@H](C=C(C)C)N1C(=O)[C@@H]2CCCN2C(=O)[C@@H]1C3 [FUMITREMORGIN]	–	–	–	Active	Active	–	–	–	–
CC(C)(O)[C@@H]1C[C@@H](O)[C@]2(C)[C@H](CC[C@@]3(C)[C@H]2CC[C@H]2Cc4c([nH]c5ccccc45)[C@@]23C)O1 [TERPENDOLE E]	34.7 µM	12.1 µM	> 100 µM	–	–	–	–	–	–
